Experimental data from publication PMC7997578, “Design, Synthesis, Dynamic Docking, Biochemical Characterization, and in Vivo Pharmacokinetics Studies of Novel Topoisomerase II Poisons with Promising Antiproliferative Activity” (Journal of Medicinal Chemistry, 2020).

Experiment: in vivo pharmacokinetics in mice
Conditions: mouse
Experimental: Finally, on the basis of the overall results and drug-like profile, 3f was selected as our lead for in vivo pharmacokinetics studies, as a preparatory characterization for future analyses of in vivo drug efficacy in animal models of cancer. We tested two different routes of administration: (i) intravenous (iv) injection at a concentration of 3 mg/kg (n = 3 for each time point) and oral (po) treatment at a dose of 10 mg/kg (n = 3 for each time point). Despite the relatively low thermodynamic solubility of 3f (30 μM in PBS), the compound reached the target concentration in the formulation used for the in vivo experiments. The mean plasma concentration versus time profile of 3f is shown in Figure 5, and the corresponding pharmacokinetic parameters are summarized in the inserted table.
Male C57B6/J male mice, 8 weeks old, 25-30 g were used (Charles River). All procedures were performed in accordance with the Ethical Guidelines of European Communities Council (Directive 2010/63/EU of 22 September 2010) and accepted by the Italian Ministry of Health. All efforts were made to minimize animal suffering and to use the minimal number of animals required to produce reliable results, according to the “3Rs concept”. Animals were group-housed in ventilated cages (n=5 mice per cage) and had free access to food and water. They were maintained under a 12-hour light/dark cycle (lights on at 8:00 am) at controlled temperature (21°C ± 1°C) and relative humi dity […]
4. Pharm acok inet ic studies
Compound 3f was administered orally (P.O.) and intravenously (I.V.) to C57B6/J male mice at 10 and 3 mg/Kg dose. Vehicle was: PEG400/Tween 80/Saline solution at 10/10/80 % in volume respectively. 3f was first dissolved in 100% PEG, then diluted to the final target concentration in this vehicle. The target concentration of 3f in the dosing solution was checked and confirmed by LC-MS .
The dosing solutions were diluted differently in the vehicle. The different dilutions were further diluted 4-fold with CH3CN prior to analysis. A reference standard was spiked in the vehicle to prepare a calibration curve over a 0.1 -10µM range. The ca librators were also diluted 4 -fold with CH3CN as for the dosing solution dilutions. The dosing solutions and calibrators were analys ed under the sam e conditions as for the plasma samples described below.
Three animals per dose were treated. Blood samples at 0, 15, 30, 60, 120, 240, and 480 minutes after administration were collected for PO arm. Blood samples at 0, 5, 15, 30, 60, 120 and 240 minutes after administration were collected for IV arm. Plasma was separated from blood by centrifugation for 15 minutes at 3500 rpm a 4°C, collected in a eppendorf tube and frozen ( -80°C). Brain samples were homogenized in Phosphate buffered saline a nd were then split in two aliquots kept at -80 °C until analysis. An aliquot was used for compound brain level evaluations, following the same procedure described below for plasma samples. The second aliquot was kept for protein content evaluation by bicinchoninic acid assay (BC A). Control animals treated with vehicle only w ere also included in the experimental protocol.
Plasma samples were centrifuged at 21.100g for 15min. at 4°C. A 50µl aliquot was transferred into a 96-Deep Well plate and 150µl of extraction so lution was added. The extraction solution was consisting of cold CH3CN spiked with 200n M of internal standard. The plate was centrifuged at 3270g for 15min. at 4°C. 80µl of supernatant was then transferred into a 96 -Deep Well plate and 80µl of H2O was added. A reference standard of the compound was spiked in naïve mouse plasma to prepare a calibration curve over a 1nM – 10µM range. Three quality control samples were prepared by spiking the compound in blank mouse plasma to the final concentrations of 20, 200 and 2000nM.
Calibrators and quality controls were extracted wit h the same e xtraction solution used for the plasma samples. The samples w ere analysed on a W aters ACQUITY UPLC/MS TQD system (Water s Inc. […]

## O=C(Nc1cccc(OC(F)(F)F)c1)c1c(O)n(-c2ccccc2)c(=S)n(-c2ccccc2)c1=O [3f, 6-Hydroxy-4-oxo-1,3-diphenyl-2-thioxo-N-(3-(trifluoromethoxy)phenyl)-1,2,3,4-tetrahydropyrimidine-5-carboxamide]
male, C57B6/J, plasma, iv 3 mg/kg, 2 h, read-out: plasma concentration after 2 h
  concentration at 2 h: 551 ng/mL
male, C57B6/J, plasma, po 10 mg/kg vs iv 3 mg/kg, based on AUC from t = 0 to 240 min, read-out: bioavailability F
  bioavailability: 8%
Iv 3 mg/kg
  AUCplasma: 295528 ng·min/mL
  CL: 4 mL/min/kg
  Clp: 0.004 L min^–1 kg^–1
  Tmax: 0.083 h
  Vd: 3 L/kg
  t½ (elimination phase): 0.5 h
Iv 3 mg/kg or po 10 mg/kg
  tolerability during PK studies: well tolerated
  treatment-related clinical signs: no treatment-related clinical signs were observed
Iv 3 mg/kg, plasma
  Cmax: 7366 ng/mL
Po 10 mg/kg
  AUCplasma: 77385 ng·min/mL
  Tmax: 2 h
  Vd: 18 L/kg
  plasma concentration reached at 1 h and stably maintained for at least 6 h: about 400 ng/mL
  time of maximum concentration: approximately 2 h
  t½ (elimination phase): 3.17 h
Po 10 mg/kg, plasma
  Cmax: 428 ng/mL
